For data set [1], the species on record is Mus musculus. Briefly: Minimum effective dose for immunostimulant activity in mice was determined. In kind it is functional. The following applies: read-out: MED.
A short description of data set [2]: Solubility was determined. In kind it is physicochemical.
The species entered for data set [3] is Mus musculus. Kind of data set: Minimum effective dose for immunostimulant activity in mice was determined; Toxic. In kind it is functional, organism-based.

In the case of `COc1ccc(Nc2cc(C)nc3ccc4c[nH]nc4c23)cc1`, the minimal effective dose in data set [1] stood at 16.7 mg/kg.

On to `CCc1ccc(Nc2cc(C)nc3ccc4c[nH]nc4c23)cc1`, for which, in data set [1], the minimal effective dose is 12.5 mg/kg. The compound further yielded a solubility in data set [2] above 6000 µg/mL. With `Cc1ccc(Nc2cc(C)nc3ccc4c[nH]nc4c23)cc1`, the minimal effective dose in data set [1] was determined as 6.25 mg/kg. This compound showed a solubility in data set [2] below 6000 µg/mL.

As for `CCCCOc1ccc(Nc2ccnc3ccc4c[nH]nc4c23)cc1`, the minimal effective dose in data set [1] is 3.13 mg/kg. The compound also showed a solubility in data set [2] above 6000 µg/mL. As for `Cc1cc(Nc2ccc(SCC(=O)O)cc2)c2c(ccc3c[nH]nc32)n1`, the minimal effective dose in data set [1] is above 50 mg/kg. On to `Cc1cc(Nc2ccc(OCC3CCCCC3)cc2)c2c(ccc3c[nH]nc32)n1`, for which, in data set [1], the minimal effective dose came to 0.62 mg/kg. The compound further had a solubility in data set [2] below 6000 µg/mL. Consider `Cc1cc(Nc2cccnc2)c2c(ccc3c[nH]nc32)n1`, for which the minimal effective dose in data set [1] was above 50 mg/kg. For the compound `CCCCOc1ccc(Nc2cc(C)nc3ccc4c[nH]nc4c23)cc1`, the minimal effective dose in data set [1] was found to be 1.85 mg/kg. In data set [2], this compound registered a solubility below 6000 µg/mL. Take `Clc1ccc(Nc2ccnc3ccc4c[nH]nc4c23)cc1`: the minimal effective dose in data set [1] came out at 12.5 mg/kg. Moreover, the solubility in data set [2] is below 6000 µg/mL.

Take `CCCc1ccc(Nc2cc(C)nc3ccc4c[nH]nc4c23)cc1`: in data set [1], the minimal effective dose worked out at 6.25 mg/kg. In data set [2], this compound had a solubility above 6000 µg/mL.

As for `c1cc(NC2CCCCC2)c2c(ccc3c[nH]nc32)n1`, in data set [3], the MED result is “Toxic”. For the same compound, the solubility in data set [2] was at least 25000 µg/mL. With `c1cc(Nc2ccc(OCC3CCCCC3)cc2)c2c(ccc3c[nH]nc32)n1`, the minimal effective dose in data set [1] came to 0.62 mg/kg. The compound also displayed a solubility in data set [2] below 6000 µg/mL. With `CCCCc1ccc(Nc2ccnc3ccc4c[nH]nc4c23)cc1`, the minimal effective dose in data set [1] turned out to be 6.25 mg/kg. This compound returned a solubility in data set [2] above 6000 µg/mL.

As to `Cc1cc(NC2CCCCC2)c2c(ccc3c[nH]nc32)n1`, the minimal effective dose in data set [1] came out at 1.85 mg/kg. Further, the solubility in data set [2] is at least 25000 µg/mL. For the compound `Cc1cc(Nc2ccc(Cl)cc2)c2c(ccc3c[nH]nc32)n1`, the minimal effective dose in data set [1] was 1.85 mg/kg. This compound displayed a solubility in data set [2] below 6000 µg/mL. Regarding `Cc1cc(Nc2ccc(O)cc2)c2c(ccc3c[nH]nc32)n1`, in data set [1], the minimal effective dose was determined as 16.7 mg/kg. On to `Cc1cc(Nc2ccc(OCc3ccccc3)cc2)c2c(ccc3c[nH]nc32)n1`, for which the minimal effective dose in data set [1] stood at 0.62 mg/kg. Also, the solubility in data set [2] was below 6000 µg/mL.

For the origin of these results see ChEMBL document CHEMBL1159173, “Investigation of side-chain sar, formulation and injection site toleration of pyrazolo[3,4-f]quinoline derivatives: a potent series of in vivo active immunostimulants” (Bioorg Med Chem Lett, 1993).
